According to ChEMBL document CHEMBL3351798, “Discovery of the CCR1 antagonist, BMS-817399, for the treatment of rheumatoid arthritis” (J Med Chem, 2014):
Activity calls are given as the source filed them. No cut-off for these calls is given here.

Columns and labels:
[1] = target: T1, C-C chemokine receptor type 1 (Homo sapiens, UniProt P32246); assay: Antagonist activity at CCR1 receptor in human whole blood assessed as blocked of MIP-1alpha-mediated CD11b upregulation preincubated for 1 hr
T1 sequence (P32246 whole entry): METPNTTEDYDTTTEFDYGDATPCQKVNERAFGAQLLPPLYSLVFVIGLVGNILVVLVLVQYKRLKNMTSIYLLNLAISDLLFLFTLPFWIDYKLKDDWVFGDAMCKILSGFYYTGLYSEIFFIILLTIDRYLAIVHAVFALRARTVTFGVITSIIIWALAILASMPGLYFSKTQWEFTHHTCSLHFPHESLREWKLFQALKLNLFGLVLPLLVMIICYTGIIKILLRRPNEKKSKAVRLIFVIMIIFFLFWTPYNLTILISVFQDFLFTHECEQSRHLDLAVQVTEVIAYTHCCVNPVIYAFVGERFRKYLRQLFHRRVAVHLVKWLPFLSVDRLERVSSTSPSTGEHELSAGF

[2] = Bioavailability in rat at 5 mg/kg; type: ADME, organism-based; details: in vivo
[3] = target: C-C chemokine receptor type 2 (Homo sapiens) (UniProt P41597); assay: Binding affinity to CCR2 receptor (unknown origin)
[4] = species: Homo sapiens; assay: Inhibition of Na+ channel (unknown origin)
[5] = Metabolic stability in human liver microsomes assessed as compound remaining at 0.5 uM after 60 mins by UV-LC/MS analysis; type: ADME; details: read-out: Stability
[6] = target: Voltage-gated inwardly rectifying potassium channel KCNH2 (Homo sapiens, UniProt Q12809); assay: Inhibition of human ERG
[7] = target: T2, C-X-C chemokine receptor type 5 (Homo sapiens) (UniProt P32302); assay: Binding affinity to CXCR5 receptor (unknown origin)
T2 sequence (whole entry): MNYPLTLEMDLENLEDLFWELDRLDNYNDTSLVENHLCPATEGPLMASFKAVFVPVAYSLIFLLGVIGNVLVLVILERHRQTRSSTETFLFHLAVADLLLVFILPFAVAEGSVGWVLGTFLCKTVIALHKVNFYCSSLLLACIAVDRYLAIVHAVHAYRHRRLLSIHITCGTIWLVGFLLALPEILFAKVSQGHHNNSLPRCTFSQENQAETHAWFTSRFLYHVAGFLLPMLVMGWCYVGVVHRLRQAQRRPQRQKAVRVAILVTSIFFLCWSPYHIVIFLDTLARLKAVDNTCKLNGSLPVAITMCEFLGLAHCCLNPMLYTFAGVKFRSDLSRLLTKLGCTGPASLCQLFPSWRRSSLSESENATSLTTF

[8] = Bioavailability in dog at 5 mg/kg; type: ADME, organism-based, Canis lupus familiaris; details: in vivo
[9] = target: T1, C-C chemokine receptor type 1; assay: Displacement of [125I]hMIP-1alpha from CCR1 in human PBMC
[10] = target: T3, Chemokine (C-C motif) receptor 1 (Canis lupus familiaris, UniProt Q2V0Q7); assay: Displacement of [125I]hMIP-1alpha from dog PBMC CCR1
T3 sequence (Q2V0Q7 whole entry): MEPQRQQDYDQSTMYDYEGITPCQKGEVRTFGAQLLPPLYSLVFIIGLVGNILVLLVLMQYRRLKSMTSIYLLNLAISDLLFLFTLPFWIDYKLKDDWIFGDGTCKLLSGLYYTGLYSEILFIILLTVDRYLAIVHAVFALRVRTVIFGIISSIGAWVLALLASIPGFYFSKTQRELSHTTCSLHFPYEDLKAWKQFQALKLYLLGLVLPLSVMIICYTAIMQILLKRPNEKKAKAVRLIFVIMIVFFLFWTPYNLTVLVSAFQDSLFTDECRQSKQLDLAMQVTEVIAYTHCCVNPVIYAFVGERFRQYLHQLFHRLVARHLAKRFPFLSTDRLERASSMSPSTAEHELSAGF

[11] = Displacement of [125I]hMIP-1alpha from monkey PBMC CCR1; design: species or system Macaca mulatta
[12] = target: C-C chemokine receptor type 5 (Homo sapiens) (UniProt P51681); assay: Binding affinity to CCR5 receptor (unknown origin)
[13] = Metabolic stability in rat liver microsomes assessed as compound remaining at 0.5 uM after 60 mins by UV-LC/MS analysis; type: ADME; details: read-out: Stability
[14] = Bioavailability in mouse at 5 mg/kg; type: ADME, organism-based; details: in vivo
[15] = target: T4, C-C chemokine receptor type 1 (Mus musculus, UniProt P51675); assay: Displacement of [125I]hMIP-1alpha from mouse CCR1
T4 sequence (P51675 whole entry): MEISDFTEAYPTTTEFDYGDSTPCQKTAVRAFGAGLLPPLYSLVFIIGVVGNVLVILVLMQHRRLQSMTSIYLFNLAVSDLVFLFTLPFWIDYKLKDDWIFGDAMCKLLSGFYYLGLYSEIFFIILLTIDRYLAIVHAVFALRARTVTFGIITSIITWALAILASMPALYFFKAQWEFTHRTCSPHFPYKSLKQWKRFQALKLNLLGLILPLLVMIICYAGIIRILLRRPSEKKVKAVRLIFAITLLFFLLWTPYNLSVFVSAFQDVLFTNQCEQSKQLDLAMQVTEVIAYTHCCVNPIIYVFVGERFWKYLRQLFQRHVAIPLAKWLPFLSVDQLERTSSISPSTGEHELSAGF

[16] = target: T5, C-X-C chemokine receptor type 3 (Homo sapiens) (UniProt P49682); assay: Binding affinity to CXCR3 receptor (unknown origin)
T5 sequence (whole entry): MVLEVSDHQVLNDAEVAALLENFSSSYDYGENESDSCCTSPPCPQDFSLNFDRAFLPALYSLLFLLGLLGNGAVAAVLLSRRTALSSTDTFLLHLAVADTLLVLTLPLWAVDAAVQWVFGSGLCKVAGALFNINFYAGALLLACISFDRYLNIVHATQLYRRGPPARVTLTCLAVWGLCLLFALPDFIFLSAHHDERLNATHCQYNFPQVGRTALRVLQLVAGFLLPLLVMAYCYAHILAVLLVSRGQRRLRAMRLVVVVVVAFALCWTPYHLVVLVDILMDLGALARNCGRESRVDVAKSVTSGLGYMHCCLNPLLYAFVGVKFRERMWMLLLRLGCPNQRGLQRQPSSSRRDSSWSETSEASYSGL

[17] = target: T1, C-C chemokine receptor type 1; assay: Antagonist activity at CCR1 receptor in human whole blood assessed as blocked of LKN1-mediated CD11b upregulation preincubated for 1 hr
[18] = target: T6, C-X-C chemokine receptor type 2 (Homo sapiens) (UniProt P25025); assay: Binding affinity to CXCR2 receptor (unknown origin)
T6 sequence (whole entry): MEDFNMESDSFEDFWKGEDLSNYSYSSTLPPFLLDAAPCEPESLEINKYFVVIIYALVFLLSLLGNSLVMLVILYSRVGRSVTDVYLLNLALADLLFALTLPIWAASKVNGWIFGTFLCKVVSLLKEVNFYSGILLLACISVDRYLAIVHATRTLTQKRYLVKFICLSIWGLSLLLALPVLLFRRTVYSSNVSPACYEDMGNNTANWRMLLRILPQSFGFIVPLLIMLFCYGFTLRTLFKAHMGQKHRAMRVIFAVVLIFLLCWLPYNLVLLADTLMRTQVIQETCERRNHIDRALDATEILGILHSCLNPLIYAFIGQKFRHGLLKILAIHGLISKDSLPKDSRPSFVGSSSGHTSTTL

[19] = species: Homo sapiens; assay: Inhibition of Ca+ channel (unknown origin)

Sequence of Voltage-gated inwardly rectifying potassium channel KCNH2 (Q12809 whole entry): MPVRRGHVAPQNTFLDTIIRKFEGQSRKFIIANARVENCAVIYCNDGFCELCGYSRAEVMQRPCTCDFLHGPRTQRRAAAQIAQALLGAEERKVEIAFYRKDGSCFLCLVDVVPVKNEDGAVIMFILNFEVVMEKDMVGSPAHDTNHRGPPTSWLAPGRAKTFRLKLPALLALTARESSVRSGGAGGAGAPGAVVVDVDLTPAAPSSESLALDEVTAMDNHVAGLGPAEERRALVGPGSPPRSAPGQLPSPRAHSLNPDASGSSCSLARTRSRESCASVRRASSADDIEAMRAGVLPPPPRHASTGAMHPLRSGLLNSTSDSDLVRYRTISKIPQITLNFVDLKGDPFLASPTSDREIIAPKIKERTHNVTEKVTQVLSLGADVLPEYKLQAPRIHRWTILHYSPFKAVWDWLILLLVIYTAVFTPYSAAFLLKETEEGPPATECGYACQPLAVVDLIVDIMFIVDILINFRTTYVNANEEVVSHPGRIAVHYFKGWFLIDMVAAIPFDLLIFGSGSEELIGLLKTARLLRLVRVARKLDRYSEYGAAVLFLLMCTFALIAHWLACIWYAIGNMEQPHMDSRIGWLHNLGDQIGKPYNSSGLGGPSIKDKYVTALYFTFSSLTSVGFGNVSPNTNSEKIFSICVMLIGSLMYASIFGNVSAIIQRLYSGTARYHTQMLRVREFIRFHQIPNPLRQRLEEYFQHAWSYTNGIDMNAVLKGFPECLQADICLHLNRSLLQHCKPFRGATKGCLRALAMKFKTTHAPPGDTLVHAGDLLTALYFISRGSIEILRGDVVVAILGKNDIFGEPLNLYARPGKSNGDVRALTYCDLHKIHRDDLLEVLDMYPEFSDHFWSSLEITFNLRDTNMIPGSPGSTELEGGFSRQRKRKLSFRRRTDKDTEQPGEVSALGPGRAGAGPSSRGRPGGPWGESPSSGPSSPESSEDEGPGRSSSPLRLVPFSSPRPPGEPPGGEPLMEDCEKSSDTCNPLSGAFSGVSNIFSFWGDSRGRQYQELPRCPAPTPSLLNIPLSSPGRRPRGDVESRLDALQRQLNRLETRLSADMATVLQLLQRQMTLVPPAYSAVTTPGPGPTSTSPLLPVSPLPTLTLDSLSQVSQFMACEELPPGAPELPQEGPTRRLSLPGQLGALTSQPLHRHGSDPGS
Sequence of C-C chemokine receptor type 2 (Homo sapiens) (P41597 whole entry, looked up): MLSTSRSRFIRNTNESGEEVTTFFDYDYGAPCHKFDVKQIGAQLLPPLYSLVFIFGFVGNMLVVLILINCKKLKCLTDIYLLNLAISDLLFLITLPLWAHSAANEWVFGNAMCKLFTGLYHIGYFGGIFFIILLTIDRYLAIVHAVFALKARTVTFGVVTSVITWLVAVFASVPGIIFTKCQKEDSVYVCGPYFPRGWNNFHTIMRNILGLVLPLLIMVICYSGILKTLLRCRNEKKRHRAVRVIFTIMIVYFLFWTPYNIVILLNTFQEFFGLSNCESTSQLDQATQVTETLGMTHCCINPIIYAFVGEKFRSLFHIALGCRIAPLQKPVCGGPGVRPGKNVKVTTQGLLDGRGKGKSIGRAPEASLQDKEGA
Sequence of C-C chemokine receptor type 5 (Homo sapiens) (P51681 whole entry, looked up): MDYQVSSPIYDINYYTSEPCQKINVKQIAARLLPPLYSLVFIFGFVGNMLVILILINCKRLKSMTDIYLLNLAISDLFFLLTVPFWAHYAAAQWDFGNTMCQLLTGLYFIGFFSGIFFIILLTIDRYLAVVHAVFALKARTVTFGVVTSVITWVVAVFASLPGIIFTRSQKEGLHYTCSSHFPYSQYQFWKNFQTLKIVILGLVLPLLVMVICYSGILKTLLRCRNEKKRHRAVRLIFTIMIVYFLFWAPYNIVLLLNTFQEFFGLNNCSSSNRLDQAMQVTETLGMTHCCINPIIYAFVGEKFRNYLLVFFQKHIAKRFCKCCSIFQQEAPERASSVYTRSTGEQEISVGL

IC50 [1]: 0.025 µM
bioavailability [2]: 46%
Activity [3]: inactive
inhibition [4]: inactive
remaining at 1 h, 0.5 µM [5]: 100%
Activity [7]: inactive
bioavailability [8]: 100%
IC50 [9]: 0.0042 µM
IC50 [10]: 0.635 µM
IC50 [11]: > 50 µM
Activity [12]: inactive
remaining at 1 h, 0.5 µM [13]: 74%
bioavailability [14]: 79%
IC50 [15]: > 50 µM
Activity [16]: inactive
IC50 [17]: 0.042 µM
Activity [18]: inactive
inhibition [19]: inactive
Structure (SMILES): CC(C)[C@@H](NC(=O)NCC(C)(C)O)C(=O)N1CC[C@](O)(c2ccc(Cl)cc2)C(C)(C)C1 [BMS-817399]
inhibition (INH) [6]: Not Active
